In this assay the test system is T1, chitinase 1198 Truncated.
T1 construct: gene CT01GL001198; perhaps lacks disordered N-terminus (residues 1-201; approx. 63 kD proteolysis bands mentioned)
Kind of assay: p-nitrophenol release, absorbance at […] nm. The format is biochemical, Chitinibacter tainanensis. The conditions noted are these: standard assay 50 mM Tris-HCl pH 7.0, substrate 5-300 μM; temperature of kinetic run not stated.

As a reminder, the Km is the substrate concentration at which the rate is half of its maximum. Take `CC(=O)N[C@H]1[C@H](Oc2ccc([N+](=O)[O-])cc2)O[C@H](CO)[C@@H](O[C@@H]2O[C@H](CO)[C@@H](O)[C@H](O)[C@H]2NC(C)=O)[C@@H]1O` [pNP-(GlcNAc)2]: the Km came out at 58.3 ± 11 µM.

Values taken from article PMC7463862, “Gene Cloning, Characterization, and Molecular Simulations of a Novel Recombinant Chitinase from Chitinibacter Tainanensis CT01 Appropriate for Chitin Enzymatic Hydrolysis” (Polymers, 2020).
